Experimental findings from patent US10829523B2, “Anti-tumor peptides and use thereof” (TOAGOSEI CO., LTD., priority 2017, dated 2020) are described below.

Holding throughout (conditions): 5 h incubation, n=3 average
The subject of assay [1] is prostate cancer cell line (DU-145). Nature of the assay: Anti-tumor activity test, cell survival rate (WST-8). It is filed as cell-based, human. The method, then: (§1) For any one of each sample peptide synthesized in the above Test Example 1, an anti-tumor activity was evaluated by having various kinds of cultured tumor cells as a subject.
(§2) Specifically, as a tumor cell for test, cultured mammary cancer cell line (MCF-7), cultured mammary cancer cell line (MDA-MB-231), cultured pancreatic cancer cell line (MIA PaCa-2), cultured prostate cancer cell line (PC-3), and cultured prostate cancer cell line (DU-145), which are currently available on the market, were used. Furthermore, as a subject for comparison, commercially available cultured cell line of normal human mammary epithelial cells was used. Details of the test are described below.
(§3) Namely, those cell lines were cultured in advance in DMEM medium (that is, Dulbecco's MEM medium (DMEM medium: product of Gibco) containing 10% fetal bovine serum (FBS: product of Gibco), 2 mM L-glutamine, 50 unit/mL penicillin, and 50 μg/mL of streptomycin), and adjusted such that the number of cells per well of a 96-hole (well) plate is about 1×10^4. The medium amount was 100 μL per well.
(§4) Subsequently, the 96-hole (well) plate was kept in a CO2 incubator and pre-incubation was carried out for about 1 day (22 hours to 23 hours) at conditions of 37° C., 5% CO2.
(§5) After that, a test medium containing the peptide at each concentration was prepared such that the peptide concentration in any sample to be an evaluation subject is any one of 3.13 μM, 6.25 μM, 12.5 μM, 25 μM, 50 μM, and 100 μM. Then, the test medium was supplied, in an amount of 90 μL per well, to a well in which the cells as an evaluation subject have been cultured (that is, well after the above pre-incubation). In addition, the 96-hole (well) plate was returned to the CO2 incubator and incubated for 5 hours at conditions of 37° C., 5% CO2.
(§6) Furthermore, number (n) of the test wells for the test group added with each peptide at each peptide concentration was all set at 3. Thus, the result values shown in the following table correspond to an average value of the results which have been obtained from each of test well number of 3. Cell survival rate (%) was determined as described below.
(§7) Upon completion of the incubation for 5 hours described above, the medium in each well was replaced with 100 μL of fresh medium not containing the peptide. Furthermore, “Cell Counting Kit-8” (product of Dojindo Laboratories) containing as a chromogenic reagent “Aqueous tetrazolium salt (WST-8)”, which is a reagent for measuring cell proliferation, was added in an amount of 10 μL to each well. After that, the 96-hole (well) plate was returned to the CO2 incubator and incubated for 1.5 hours at conditions of 37° C. 5% CO2.
(§8) Upon completion of the incubation, the cell culture solution added with the above reagent was recovered, and simultaneously, according to colorimetry by which absorbance at wavelength of 450 nm based on reduction of tetrazolium salt (value calibrated with absorbance at wavelength of 650 nm: A450-A650), the cell survival rate (%) was evaluated.

The subject of assay [2] is pancreatic cancer cell line (MIA PaCa-2). The assay is described as above. It is filed as cell-based, human. The protocol:
as §1, §2, §3, §4, §5, §6, §7, §8

The subject of assay [3] is mammary cancer cell line (MCF-7). The assay is described as above. It is filed as cell-based, human. The method, then:
as §1, §2, §3, §4, §5, §6, §7, §8

In assay [4] the test system is mammary cancer cell line (MDA-MB-231). The description is as above. It is filed as cell-based, human. The protocol:
as §1, §2, §3, §4, §5, §6, §7, §8

Assay [5] concerns prostate cancer cell line (PC-3). Described as above. The class given is cell-based, human. The protocol:
as §1, §2, §3, §4, §5, §6, §7, §8

Assay [6] relates to normal human mammary epithelial cells. Kind of assay: Cell survival rate test (WST-8, Cell Counting Kit-8) on normal cells for comparison. The class given is cell-based. The protocol:
as §1, §2, §3, §4, §5, §6, §7, §8

Peptide text beside a SMILES is read from it.

For `CC[C@H](C)[C@H](NC(=O)CNC(=O)[C@H](CC(C)C)NC(=O)[C@H](CC(C)C)NC(=O)[C@H](Cc1ccccc1)NC(=O)[C@@H](NC(=O)CNC(=O)[C@@H](NC(=O)CNC(=O)[C@H](CCCCN)NC(=O)[C@@H](N)CCSC)[C@@H](C)O)[C@@H](C)O)C(=O)N[C@@H](C)C(=O)NCC(=O)N[C@@H](CC(C)C)C(=O)N[C@@H](Cc1ccccc1)C(=O)N[C@H](C(=O)N[C@@H](CC(C)C)C(=O)N[C@@H](CCC(N)=O)C(=O)N[C@@H](CCCCN)C(=O)N[C@H](C(=O)N[C@H](C(=O)N[C@@H](CCC(N)=O)C(=O)N[C@@H](CCCNC(=N)N)C(=O)N[C@@H](CCCNC(=N)N)C(=O)N[C@@H](CCCNC(=N)N)C(=O)N[C@@H](CCCNC(=N)N)C(=O)N[C@@H](CCCNC(=N)N)C(=O)N[C@@H](CCCNC(=N)N)C(=O)N[C@@H](CCCNC(=N)N)C(=O)N[C@@H](CCCNC(=N)N)C(=O)N[C@@H](CCCNC(=N)N)C(N)=O)[C@@H](C)CC)C(C)C)[C@@H](C)O` [Sample 2] (H-MKGTGTFLLGIAGLFTLQKVIQRRRRRRRRR-NH2; N-terminus assumed), the “Cell survival rate (%)” value in assay [1] (peptide 12.5 μM) is on record as 86.2%; in assay [1] (peptide 25 μM), 75.2%; in assay [1] (peptide 50 μM) it was 41.2%; in assay [1] (peptide 100 μM) it was 16.4%; in assay [2] (peptide 12.5 μM) it was 94.4%; in assay [2] (peptide 25 μM), 91.3%. In addition, the “Cell survival rate (%)” value in assay [2] (peptide 50 μM) was determined as 36.7%; in assay [2] (peptide 100 μM) it was 7%; in assay [3] (peptide 12.5 μM), 75.7%; in assay [3] (peptide 25 μM) it was 49.1%; in assay [3] (peptide 50 μM), 20.2%; in assay [3] (peptide 100 μM), 17.6%. Also, the “Cell survival rate (%)” value in assay [4] (peptide 12.5 μM) is on record as 80%; in assay [4] (peptide 25 μM), 69.7%; in assay [4] (peptide 50 μM), 52.6%; in assay [4] (peptide 100 μM), 44.3%; in assay [5] (peptide 12.5 μM), 101.1%; in assay [5] (peptide 25 μM) it was 80.9%. The “Cell survival rate (%)” value in assay [5] (peptide 50 μM) came to 45.2%; in assay [5] (peptide 100 μM), 42.6%; in assay [6] (peptide 12.5 μM), 88.3%; in assay [6] (peptide 25 μM), 82.1%; in assay [6] (peptide 50 μM), 56.1%; in assay [6] (peptide 100 μM), 42.7%.
Turning to `CC[C@H](C)[C@H](NC(=O)[C@H](CO)NC(=O)[C@@H](NC(=O)[C@H](CC(C)C)NC(=O)[C@H](CC(C)C)NC(=O)[C@H](CC(N)=O)NC(=O)[C@H](Cc1c[nH]c2ccccc12)NC(=O)[C@H](CCC(N)=O)NC(=O)[C@H](CC(C)C)NC(=O)[C@@H]1CCCN1C(=O)[C@@H](N)Cc1ccc(O)cc1)[C@@H](C)CC)C(=O)N[C@@H](CC(C)C)C(=O)N[C@@H](C)C(=O)N[C@@H](CO)C(=O)N[C@@H](CO)C(=O)N[C@H](C(=O)NCC(=O)N[C@@H](CO)C(=O)N[C@@H](Cc1ccc(O)cc1)C(=O)N[C@@H](C)C(=O)N[C@H](C(=O)N[C@@H](CCCCN)C(=O)N[C@@H](CCCCN)C(=O)N[C@@H](CCCNC(=N)N)C(=O)N[C@H](C(=O)N[C@@H](CC(C)C)C(=O)N[C@@H](CCCNC(=N)N)C(=O)N[C@@H](CCCCN)C(=O)N[C@@H](CC(N)=O)C(=O)N[C@@H](CC(=O)O)C(=O)N[C@@H](CCCNC(=N)N)C(=O)N[C@@H](CCCCN)C(=O)N[C@@H](CCCCN)C(=O)N[C@@H](CCCNC(=N)N)C(N)=O)[C@@H](C)O)C(C)C)C(C)C` [Sample 3] (H-YPLQWNLLISILASSVGSYAVKKRTLRKNDRKKR-NH2; N-terminus assumed), the “Cell survival rate (%)” value in assay [1] (peptide 12.5 μM) worked out at 78.6%; in assay [1] (peptide 25 μM), 73.7%; in assay [1] (peptide 50 μM), 49.3%; in assay [1] (peptide 100 μM), 37.5%; in assay [2] (peptide 12.5 μM), 101.4%; in assay [2] (peptide 25 μM), 93.8%. For the same molecule, the “Cell survival rate (%)” value is 88.5% in assay [2] (peptide 50 μM); 45.6% in assay [2] (peptide 100 μM); 79.3% in assay [3] (peptide 12.5 μM); 71.8% in assay [3] (peptide 25 μM); 50% in assay [3] (peptide 50 μM); 32.8% in assay [3] (peptide 100 μM). For the same molecule, the “Cell survival rate (%)” value in assay [4] (peptide 12.5 μM) is reported as 77.9%; in assay [4] (peptide 25 μM), 65.7%; in assay [4] (peptide 50 μM) it was 54.5%; in assay [4] (peptide 100 μM) it was 45%; in assay [5] (peptide 12.5 μM) it was 64.6%; in assay [5] (peptide 25 μM) it was 66.5%. For the same molecule, the “Cell survival rate (%)” value in assay [5] (peptide 50 μM) came to 62.5%; in assay [5] (peptide 100 μM) it was 47%; in assay [6] (peptide 12.5 μM), 83.6%; in assay [6] (peptide 25 μM) it was 71.6%; in assay [6] (peptide 50 μM), 81.5%; in assay [6] (peptide 100 μM), 74.8%.
Regarding `CC[C@H](C)[C@H](NC(=O)CNC(=O)[C@@H](NC(=O)[C@@H](NC(=O)CNC(=O)[C@H](CC(C)C)NC(=O)[C@@H](NC(=O)[C@H](Cc1ccccc1)NC(=O)[C@H](CO)NC(=O)[C@H](C)NC(=O)[C@@H](NC(=O)CNC(=O)[C@H](CCCCN)NC(=O)[C@H](CCSC)NC(=O)[C@H](Cc1ccccc1)NC(=O)[C@H](C)NC(=O)[C@@H](N)Cc1ccc(O)cc1)[C@@H](C)O)[C@@H](C)CC)[C@@H](C)O)C(C)C)C(=O)N[C@@H](Cc1ccccc1)C(=O)N[C@@H](Cc1ccccc1)C(=O)NCC(=O)N[C@@H](Cc1c[nH]c2ccccc12)C(=O)N[C@@H](CCCNC(=N)N)C(=O)N[C@@H](CCCNC(=N)N)C(=O)N[C@@H](CCC(N)=O)C(=O)N[C@@H](C)C(=O)N[C@@H](CCCNC(=N)N)C(=O)N[C@@H](Cc1ccccc1)C(=O)N[C@@H](CCCCN)C(N)=O` [Sample 8] (H-YAFMKGTASFILGTVGIFFGWRRQARFK-NH2; N-terminus assumed), the “Cell survival rate (%)” value turned out to be 99% in assay [4] (peptide 3.13 μM) and 76% in assay [4] (peptide 50 μM).
As for `CC[C@H](C)[C@H](NC(=O)[C@H](CO)NC(=O)[C@@H](NC(=O)[C@H](Cc1ccccc1)NC(=O)[C@H](CC(C)C)NC(=O)[C@H](CC(N)=O)NC(=O)[C@H](Cc1c[nH]c2ccccc12)NC(=O)[C@H](CCC(N)=O)NC(=O)[C@@H](N)CC(C)C)C(C)C)C(=O)N[C@H](C(=O)N[C@@H](CO)C(=O)N[C@@H](CO)C(=O)N[C@@H](CO)C(=O)N[C@H](C(=O)N[C@@H](Cc1ccccc1)C(=O)N[C@@H](CO)C(=O)N[C@@H](Cc1ccc(O)cc1)C(=O)N[C@@H](CO)C(=O)N[C@H](C(=O)N[C@@H](Cc1c[nH]c2ccccc12)C(=O)N[C@@H](CCCNC(=N)N)C(=O)N[C@@H](CCCNC(=N)N)C(=O)N[C@@H](CCC(N)=O)C(=O)N[C@@H](C)C(=O)N[C@@H](CCCNC(=N)N)C(=O)N[C@@H](Cc1ccccc1)C(=O)N[C@@H](CCCCN)C(N)=O)C(C)C)C(C)C)C(C)C` [Sample 9] (H-LQWNLFVSIVSSSVFSYSVWRRQARFK-NH2; N-terminus assumed), the “Cell survival rate (%)” value is recorded as 99% in assay [4] (peptide 3.13 μM) and 73% in assay [4] (peptide 50 μM).
`CC[C@H](C)[C@H](NC(=O)[C@H](C)NC(=O)[C@H](CO)NC(=O)[C@@H](NC(=O)[C@H](CC(C)C)NC(=O)[C@H](Cc1ccccc1)NC(=O)[C@H](CO)NC(=O)[C@H](Cc1c[nH]c2ccccc12)NC(=O)[C@H](CCC(N)=O)NC(=O)[C@@H](NC(=O)[C@@H]1CCCN1)C(C)C)C(C)C)C(=O)N[C@@H](C)C(=O)NCC(=O)N[C@@H](CO)C(=O)N[C@H](C(=O)N[C@@H](C)C(=O)N[C@@H](CO)C(=O)N[C@@H](Cc1ccc(O)cc1)C(=O)N[C@@H](CCCNC(=N)N)C(=O)N[C@H](C(=O)N[C@@H](Cc1c[nH]c2ccccc12)C(=O)N[C@@H](CCCNC(=N)N)C(=O)N[C@@H](CCCNC(=N)N)C(=O)N[C@@H](CCC(N)=O)C(=O)N[C@@H](C)C(=O)N[C@@H](CCCNC(=N)N)C(=O)N[C@@H](Cc1ccccc1)C(=O)N[C@@H](CCCCN)C(N)=O)C(C)C)C(C)C` [Sample 11] (H-PVQWSFLVSAIAGSVASYRVWRRQARFK-NH2; N-terminus assumed): the “Cell survival rate (%)” value in assay [4] (peptide 3.13 μM) is 101%; in assay [4] (peptide 50 μM), 77%.
